In brackets after ≈: the same amount, converted by molar mass. Where a SMILES comes first, the peptide text is derived from it. Bridges are numbered along the chain shown (N, C = ends).
Experiments:
E. coli MG 1655 = conditions: MG 1655, 24 h
Method: (§2) Bacterial cultures were grown in Luria Bertani broth (Hi-media) by overnight incubation at 37°C with constant shaking. Microbial cultures having 10^6 CFU/ml were made from OD 0.6 culture. Respective peptide stock concentration (1mg/ml) were prepared in sterile water and diluted in LB broth to make concentrations ranging from 1–200 μg/ml. Bacterial culture (50 μl) was treated with 50 μl of individual peptide amide solution of various concentrations and incubated for 24 h at 37°C with constant shaking in a 96 well microtitre plate. […] The minimum inhibitory concentration (MIC) was taken as the dose at which 100% of growth inhibition was observed and was calculated from the graph. MIC was calculated from independent experiments performed in triplicate.

[1] = tested on: V. cholerae (clinical isolates); conditions: 24 h
Method: as §2

B. subtilis MTCC 14416 = conditions: MTCC 14416, 24 h
Method: as §2

PBMCs = format: cell-based, human
Method: Peripheral blood mononuclear cells (PBMCs) were isolated from heparanised blood of healthy individuals. Five milliliter of blood was diluted with PBS (pH 7.4), and layered above 5 ml of histopaque and centrifuged at 1200 rpm for 30 min at room temperature. The upper layer was discarded, and the interphase containing PBMCs were carefully withdrawn and washed with PBS. It was centrifuged at 1500 rpm at room temperature for 10 min, the pellets were resuspended in RPMI medium and the cells were counted.
(§1) Cytotoxicity of the peptides against human embryonic kidney (HEK) cells, skin cancer cells (A431) and PBMCs were evaluated by 3-[4, 5-dimethylthiazol-2-yl]-2, 5-diphenyl tetrazolium bromide (MTT) assay. Peptide solution prepared in less than 0.2% DMSO (10–100 μg/ml) was treated with initially seeded 10,000 cells per well for HEK and A431 cells. To assess peptide cytotoxicity in PBMCs, MTT assay was performed by adding different concentrations of the respective peptides to 96 well plate containing 40,000 PBMCs per well, in triplicate. The conversion of MTT into […] was determined by measuring the absorbance at 570 nm.

P. aeruginosa ATCC 27853 = conditions: ATCC 27853, 24 h
Method: as §2

skin cancer cells (A431) = format: cell-based, human
Method: as §1

[2] = tested on: human embryonic kidney (HEK) cells; format: cell-based
Method: as §1

B. coagulans ATCC 7050 = conditions: ATCC 7050, 24 h
Method: as §2

S. aureus ATCC 9542 = conditions: ATCC 9542, 24 h
Method: as §2

SMILES | MIC (E. coli MG 1655) [µg/mL] | MIC [1] [µg/mL] | MIC (B. subtilis MTCC 14416) [µg/mL] | CC 50 (PBMCs) [µg/mL] | MIC (P. aeruginosa ATCC 27853) [µg/mL] | CC 50 (skin cancer cells (A431)) [µg/mL] | CC 50 [2] [µg/mL] | MIC (B. coagulans ATCC 7050) [µg/mL] | MIC (S. aureus ATCC 9542) [µg/mL]
CC[C@H](C)[C@@H]1NC(=O)[C@H](CCCCN)NC(=O)[C@@H](NC(=O)[C@H](CC(C)C)NC(=O)[C@@H](NC(=O)[C@H](CCC(N)=O)NC(=O)[C@@H]2CCCN2C(=O)[C@H](CC(C)C)NC(=O)[C@H](Cc2ccccc2)NC(=O)[C@H](CC(N)=O)NC(=O)[C@H](C)NC(=O)[C@H](C)NC(=O)[C@H](CC(C)C)NC(=O)CNC(=O)[C@H](C)NC(=O)[C@@H](NC(=O)[C@@H](N)Cc2c[nH]cn2)[C@@H](C)CC)[C@@H](C)CC)CSSC[C@@H](C(N)=O)NC(=O)[C@H](CCCCN)NC(=O)[C@H](CCCNC(=N)N)NC(=O)[C@H](C)NC1=O [B1CTcu5H] (H-HIAGLAANFLPQILCKIARKC-NH2; disulfide 15-21) | 50 (≈ 22 µM) | 25 (≈ 11 µM) | 50 (≈ 22 µM) | 90 ± 2.56 (≈ 39.5 µM) | >100 | >100 | >100 | 25 (≈ 11 µM) | >100
CC[C@H](C)[C@@H]1NC(=O)[C@H](CCCCN)NC(=O)[C@@H](NC(=O)[C@H](CC(C)C)NC(=O)[C@@H](NC(=O)[C@H](CCC(N)=O)NC(=O)[C@@H]2CCCN2C(=O)[C@H](CC(C)C)NC(=O)[C@H](Cc2ccccc2)NC(=O)[C@H](CC(N)=O)NC(=O)[C@H](C)NC(=O)[C@H](C)NC(=O)[C@H](CC(C)C)NC(=O)CNC(=O)[C@H](C)NC(=O)[C@@H](NC(=O)[C@@H](N)CCCCN)[C@@H](C)CC)[C@@H](C)CC)CSSC[C@@H](C(N)=O)NC(=O)[C@H](CCCCN)NC(=O)[C@H](CCCNC(=N)N)NC(=O)[C@H](C)NC1=O [B1CTcu5K] (H-KIAGLAANFLPQILCKIARKC-NH2; disulfide 15-21) | 25 (≈ 11 µM) | 25 (≈ 11 µM) | 100 (≈ 44.1 µM) | >100 | >100 | >100 | >100 | 12.5 (≈ 5.51 µM) | 12.5 (≈ 5.51 µM)
CC[C@H](C)[C@@H]1NC(=O)[C@H](CCCCN)NC(=O)[C@@H](NC(=O)[C@H](CC(C)C)NC(=O)[C@@H](NC(=O)[C@H](CCC(N)=O)NC(=O)[C@@H]2CCCN2C(=O)[C@H](CC(C)C)NC(=O)[C@H](Cc2ccccc2)NC(=O)[C@H](CC(N)=O)NC(=O)[C@H](C)NC(=O)[C@H](C)NC(=O)[C@H](CC(C)C)NC(=O)CNC(=O)[C@H](C)NC(=O)[C@@H](NC(=O)[C@@H](N)Cc2c[nH]c3ccccc23)[C@@H](C)CC)[C@@H](C)CC)CSSC[C@@H](C(N)=O)NC(=O)[C@H](CCCCN)NC(=O)[C@H](CCCNC(=N)N)NC(=O)[C@H](C)NC1=O [B1CTcu5W] (H-WIAGLAANFLPQILCKIARKC-NH2; disulfide 15-21) | 100 (≈ 43 µM) | 25 (≈ 10.7 µM) | 50 (≈ 21.5 µM) | 74.5 ± 2.44 (≈ 32 µM) | >100 | >100 | >100 | 12.5 (≈ 5.37 µM) | 12.5 (≈ 5.37 µM)
CC[C@H](C)[C@@H]1NC(=O)[C@H](CCCCN)NC(=O)[C@@H](NC(=O)[C@H](CC(C)C)NC(=O)[C@@H](NC(=O)[C@H](CCC(N)=O)NC(=O)[C@@H]2CCCN2C(=O)[C@H](CC(C)C)NC(=O)[C@H](Cc2ccccc2)NC(=O)[C@H](CC(N)=O)NC(=O)[C@H](C)NC(=O)[C@H](C)NC(=O)[C@@H](N)CC(C)C)[C@@H](C)CC)CSSC[C@@H](C(N)=O)NC(=O)[C@H](CCCCN)NC(=O)[C@H](CCCNC(=N)N)NC(=O)[C@H](C)NC1=O [B1CTcu5-LIAG] (H-LAANFLPQILCKIARKC-NH2; disulfide 11-17) | 12.5 (≈ 6.58 µM) | 12.5 (≈ 6.58 µM) | 50 (≈ 26.3 µM) | >100 | >100 | >100 | >100 | 25 (≈ 13.2 µM) | 6.25 (≈ 3.29 µM)
